Measured values published in patent publication EP0350946A2 (priority 1988, dated 1990).
Read-outs that look alike come from different tables or passages of the source.

Columns and labels:
[1] = system: Pseudoperonospora cubensis; test: Curative effect on downy mildew of cucumber; assay type: in vivo, cucumber (var: Sagamihanjiro); conditions: sprayed the day after inoculation, observed after 8 days, percent disease control
Excerpt: (§1) Typical test data indicating the excellent fungicidal activity of the amide compounds (I) are shown below. The assessment data are converted to percent disease control. 100 % means no infection; 0 % means that the plant are totally infected compared with the control plant.
A plastic pot was filled with sandy soil, and seeds of cucumber (var: Sagamihanjiro) were sowed therein, followed by cultivation in a greenhouse for 14 days. A spore suspension of Pseudoperonospora cubensis was inoculated by spreading over the seedlings of the test plants, which were then allowed to stand at 20°C overnight under a humid condition. The test compound formulated in a wettable powder according to Formulation Example 1 and diluted with water to a prescribed concentration was thoroughly sprayed over the test plants, which were further grown for 8 days under illumination and observed.

Plasmopara viticola = test: Curative effect on downy mildew of grapes; assay type: in vivo, grapes (var: Bailey-A); conditions: sprayed the day after inoculation, observed after 8 days, percent disease control
Excerpt: as §1
A plastic pot was filled with sandy soil, and seeds of grapes (var: Bailey-A) were sowed therein, followed by cultivation in a greenhouse for 50 days. A spore suspension of Plasmopara viticola was inoculated by spreading over the seedlings at the 6 to 7 leaf-stage of the test plants, which were then allowed to stand at 20°C overnight under a humid condition. The test compound formulated in a wettable powder according to Formulation Example 1 and diluted with water to a prescribed concentration was thoroughly sprayed over the test plants, which were further grown for 8 days under illumination and observed.

Phytophthora infestans = assay type: in vivo, tomato (var: Ponte Rosa); conditions: sprayed the day after inoculation, observed after 5 days, percent disease control

Row | SMILES | Curative effect Cucumber ([1]; 100 ppm) [%] | Curative effect Cucumber ([1]; 200 ppm) [%] | Curative effect Grape (Plasmopara viticola; 100 ppm) [%] | Curative effect Grape (Plasmopara viticola; 200 ppm) [%] | Curative effect Tomato (Phytophthora infestans; 100 ppm) [%] | Curative effect Tomato (Phytophthora infestans; 200 ppm) [%]
1 | C#CCCOC(C#N)NC(=O)c1sc(C)nc1CC (centres unmarked) [Compound 10, 2-(butynyl-3-oxy)-2-(4-ethyl-2-methylthiazole-5-carboxamino)acetonitrile] | 95 | 100 | 90 | 100 | 95 | 100
2 | CCc1nc(C)sc1C(=O)NC(C#N)OCCC#N (centres unmarked) [Compound 11, 2-(2-cyanoethoxy)-2-(4-ethyl-2-methylthiazole-5-carboxamino)acetonitrile] | 90 | 100 | 100 | 100 | 100 | 100
3 | CCSC(C#N)NC(=O)c1sc(C)nc1CC (centres unmarked) [Compound 12, 2-ethylthio-2-(4-ethyl-2-methylthiazole-5-carboxamino)acetonitrile] | 90 | 100 | 90 | 100 | 95 | 100
4 | C#CCCOC(C#N)NC(=O)c1sc(C)nc1C (centres unmarked) [Compound 4, 2-(butynyl-3-oxy)-2-(2,4-dimethylthiazole-5-carboxamino)acetonitrile] |  | 100 |  | 100 | 90 | 100
5 | CCOC(C#N)NC(=O)c1sc(C)nc1C(C)C (centres unmarked) [Compound 14, 2-ethoxy-2-(4-isopropyl-2-methylthiazole-5-carboxamino)acetonitrile] | 100 | 100 | 90 | 100 | 100 | 100
6 | CCOC(C#N)NC(=O)c1sc(C)nc1C (centres unmarked) [Compound 2, 2-ethoxy-2-(2,4-dimethylthiazole-5-carboxamino)acetonitrile] | 95 | 100 | 100 | 100 | 95 | 100
7 | CCOC(C#N)NC(=O)c1sc(C)nc1CC (centres unmarked) [Compound 6, 2-ethoxy-2-(4-ethyl-2-methylthiazole-5-carboxamino)acetonitrile] |  | 100 | 100 | 100 | 100 | 100
8 | CCCc1nc(C)sc1C(=O)NC(C#N)OCC (centres unmarked) [Compound 13, 2-ethoxy-2-(4-n-propyl-2-methylthiazole-5-carboxamino)acetonitrile] | 90 | 95 |  | 90 | 90 | 95
9 | CCCOC(C#N)NC(=O)c1sc(C)nc1CC (centres unmarked) [Compound 7, 2-n-propoxy-2-(4-ethyl-2-methylthiazole-5-carboxamino)acetonitrile] | 90 | 100 | 90 | 100 | 100 | 100
